Experimental data published in EP4631939A1, “SALT AND CRYSTAL FORM OF ANTI-TUMOR HETEROCYCLIC COMPOUND” (CSPC Zhongqi Pharmaceutical Technology (Shijiazhuang) Co., …, priority 2022, dated 2024).

What was measured:
[1] = target: T1, PRMT5 (Homo sapiens, UniProt O14744); assay: PRMT5 enzymatic activity inhibition test ([3H]-SAM FlashPlate); assay type: biochemical; settings: for IC50: 5 nM PRMT5, 0.3 µM [3H]-SAM, 100 nM polypeptide substrate
T1 construct: purchased Active Motif 31921
Procedure: A 1× enzyme reaction buffer was prepared using 10 mM Tris 8.0 (Sigma, Cat. No. T2694-1L), 0.01% Tween-20 (Sigma, Cat. No. P2287-100ML), and 1 mM DTT (Sigma, Cat. No. D0632-10G). […] Subsequently, the concentration (X) and corresponding inhibition rate (Inh%) (Y) were input into EXCEL. The XLFit plug-in was then used to fit the data using the built-in four-parameter logistic equation: Y = Bottom + (Top - Bottom)/(1 + (IC50/X) […]). The IC50 (half-maximal inhibitory concentration) value for each compound was then calculated.

[2] = test system: Z-138 cells; assay: Z-138 cell growth inhibition test (CellTiter-Glo, 5 days); assay type: cell-based; settings: Homo sapiens, incubated 5 days (120 h)
Procedure: The cells were routinely subcultured. After approximately two passages, well-growing cell strains were selected for plating.
• I. The suspension was removed from the incubator, transferred into a 50 mL centrifuge tube, and then centrifuged at 800-1000 rpm for 3-5 min, and the supernatant was discarded. An appropriate volume of culture medium was added to the centrifuge tube, and the cells were gently pipetted to ensure a uniform suspension. Cell counting was performed using the Vi-Cell XR cell counter. • II. Based on the measured cell density, the cell suspension was adjusted to an appropriate concentration. • III. The cell suspension was added to a 384-well plate at a volume of 40 µL/well, with 700 cells/well. For blank control wells, an equal volume of cell-free culture medium was added instead.
• I. The compound was dissolved in 100% DMSO to prepare a 10 mM stock solution. • II. […]
The assay was performed according to the instructions of the Promega CellTiter-Glo luminescent cell viability assay kit (Promega-G7573): • I. The CellTiter-Glo buffer was thawed and let stand at room temperature. • II. […] The luminescence signals were detected on 2104 EnVision plate reader. […]
The dose-response inhibition curve was plotted using XLFit, and IC50 values were calculated using the four-parameter logistic model: [fit = (A + ((B - A)/(1 + ((C/x) ^ D))))].

[3] = test system: human origin B-cell non-Hodgkin's lymphoma Z-138 cell strain; assay: Subcutaneous Z-138 xenograft in mice; assay type: in vivo; settings: subcutaneous xenograft in female NOD/SCID mice

T1 sequence (O14744 whole entry): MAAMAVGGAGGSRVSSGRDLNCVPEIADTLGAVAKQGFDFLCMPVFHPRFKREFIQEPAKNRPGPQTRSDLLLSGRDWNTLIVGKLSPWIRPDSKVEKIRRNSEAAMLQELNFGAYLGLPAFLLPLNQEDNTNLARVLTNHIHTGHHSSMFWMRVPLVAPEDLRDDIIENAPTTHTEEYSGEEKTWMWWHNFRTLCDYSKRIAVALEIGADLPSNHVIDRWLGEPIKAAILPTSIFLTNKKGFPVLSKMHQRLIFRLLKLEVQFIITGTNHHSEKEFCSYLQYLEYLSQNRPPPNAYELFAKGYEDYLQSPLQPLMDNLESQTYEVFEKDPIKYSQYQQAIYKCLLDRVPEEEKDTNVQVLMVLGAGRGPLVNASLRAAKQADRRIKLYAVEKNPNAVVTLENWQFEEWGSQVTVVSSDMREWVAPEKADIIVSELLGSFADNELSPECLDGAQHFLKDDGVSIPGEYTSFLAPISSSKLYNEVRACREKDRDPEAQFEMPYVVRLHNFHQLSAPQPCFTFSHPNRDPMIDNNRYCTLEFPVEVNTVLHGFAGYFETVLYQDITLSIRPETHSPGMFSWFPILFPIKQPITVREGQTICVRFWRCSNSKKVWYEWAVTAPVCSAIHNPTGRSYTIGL
T1 sequence (Q9BQA1 whole entry partner): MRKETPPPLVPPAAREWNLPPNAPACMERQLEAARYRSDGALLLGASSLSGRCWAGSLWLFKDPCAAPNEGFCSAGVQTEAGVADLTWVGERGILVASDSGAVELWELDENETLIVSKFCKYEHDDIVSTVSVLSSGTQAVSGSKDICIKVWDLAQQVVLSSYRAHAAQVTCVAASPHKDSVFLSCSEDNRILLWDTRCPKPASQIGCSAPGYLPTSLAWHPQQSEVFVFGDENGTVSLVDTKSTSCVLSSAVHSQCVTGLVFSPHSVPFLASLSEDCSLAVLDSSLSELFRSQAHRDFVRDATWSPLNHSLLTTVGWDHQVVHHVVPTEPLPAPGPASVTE

| SMILES | IC50 [1] [nM] | inhibitory activity against the enzymatic activity ([1]; in vitro, statement in words) | IC50 [2] [nM] | tumor inhibition effects [3] |
| --- | --- | --- | --- | --- |
| CC(C)Oc1nc(NC2CCN(C(=O)c3ccccc3)CC2)cc(C(=O)N2CC[C@@H](N3CCc4ccccc4C3)[C@H](O)C2)n1 [Example 1, (6-((1-benzoylpiperidin-4-yl)amino)-2-isopropoxypyrimidin-4-yl)((3R,4R)-4-(3,4-dihydroisoquinolin-2(1H)-yl)-3-hydroxypiperidin-1-yl)methanone] | 6.4 | strong inhibitory effects | 46.6 | excellent tumor inhibition effects |
| CC(=O)N1CCC(Nc2cc(C(=O)N3CCC(N4CCc5ccccc5C4)CC3)nc(C)n2)CC1 [reference compound, reference compound] | 115 |  | 2710 |  |
